Measurements reported in ChEMBL document CHEMBL1136598, “Design, synthesis, and structure-activity relationships of unsubstituted piperazinone-based transition state factor Xa inhibitors” (Bioorg Med Chem Lett, 2003).
Active and inactive are the calls of the source. No cut-off for these calls is given here.

Tests used:
[1] = target: Prothrombin (Homo sapiens, UniProt P00734); test: In vitro inhibitory activity against serine protease thrombin
[2] = target: T1, Coagulation factor X (Homo sapiens, UniProt P00742); test: In vitro inhibitory activity against factor Xa
T1 sequence (P00742 41-179 limits assumed): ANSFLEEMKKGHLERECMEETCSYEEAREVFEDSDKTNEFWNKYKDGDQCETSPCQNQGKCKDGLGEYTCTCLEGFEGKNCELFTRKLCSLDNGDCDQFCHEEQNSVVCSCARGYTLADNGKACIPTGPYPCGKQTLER
T1 sequence (P00742 235-488 limits assumed): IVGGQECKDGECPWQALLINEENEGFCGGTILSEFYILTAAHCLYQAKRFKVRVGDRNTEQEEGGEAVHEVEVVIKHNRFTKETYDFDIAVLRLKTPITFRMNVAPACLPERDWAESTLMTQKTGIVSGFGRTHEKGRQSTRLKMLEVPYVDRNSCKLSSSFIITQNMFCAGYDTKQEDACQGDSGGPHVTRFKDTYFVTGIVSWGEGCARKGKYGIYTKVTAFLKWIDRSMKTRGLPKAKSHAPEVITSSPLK

[3] = In vitro anticoagulant activity was measured by plasma based on thrombin generation (TG) assay; format: functional
[4] = target: Plasminogen (Homo sapiens, UniProt P00747); test: Inhibitory activity against Plasmin
Chain of Plasminogen (P00747 97-580 limits assumed): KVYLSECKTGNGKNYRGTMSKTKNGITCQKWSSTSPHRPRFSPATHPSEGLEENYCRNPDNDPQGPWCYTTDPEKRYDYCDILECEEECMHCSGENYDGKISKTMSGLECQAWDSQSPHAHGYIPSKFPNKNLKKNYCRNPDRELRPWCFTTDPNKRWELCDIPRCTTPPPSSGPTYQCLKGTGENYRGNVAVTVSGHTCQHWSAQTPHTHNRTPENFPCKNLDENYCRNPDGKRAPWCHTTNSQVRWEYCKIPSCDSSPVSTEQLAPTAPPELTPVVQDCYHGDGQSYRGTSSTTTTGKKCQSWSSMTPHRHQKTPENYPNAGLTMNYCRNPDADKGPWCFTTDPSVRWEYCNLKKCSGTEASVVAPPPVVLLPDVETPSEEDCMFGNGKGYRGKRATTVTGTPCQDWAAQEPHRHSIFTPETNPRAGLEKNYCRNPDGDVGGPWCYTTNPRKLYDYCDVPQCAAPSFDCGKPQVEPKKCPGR
Chain of Plasminogen (P00747 581-810 limits assumed): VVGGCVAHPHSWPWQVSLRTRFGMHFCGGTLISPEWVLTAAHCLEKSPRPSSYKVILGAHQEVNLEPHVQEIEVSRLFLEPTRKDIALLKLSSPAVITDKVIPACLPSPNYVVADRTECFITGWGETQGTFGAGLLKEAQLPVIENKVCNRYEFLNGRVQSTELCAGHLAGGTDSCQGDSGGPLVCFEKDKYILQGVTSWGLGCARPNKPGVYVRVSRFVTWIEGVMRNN

[5] = In vitro anticoagulant activity was measured by prothrombin time (PT) assay; format: functional
[6] = target: Tissue-type plasminogen activator (Homo sapiens, UniProt P00750); test: Inhibitory activity against tissue plasminogen activator (tissue plasminogen activator)
Chain of Tissue-type plasminogen activator (P00750 whole entry): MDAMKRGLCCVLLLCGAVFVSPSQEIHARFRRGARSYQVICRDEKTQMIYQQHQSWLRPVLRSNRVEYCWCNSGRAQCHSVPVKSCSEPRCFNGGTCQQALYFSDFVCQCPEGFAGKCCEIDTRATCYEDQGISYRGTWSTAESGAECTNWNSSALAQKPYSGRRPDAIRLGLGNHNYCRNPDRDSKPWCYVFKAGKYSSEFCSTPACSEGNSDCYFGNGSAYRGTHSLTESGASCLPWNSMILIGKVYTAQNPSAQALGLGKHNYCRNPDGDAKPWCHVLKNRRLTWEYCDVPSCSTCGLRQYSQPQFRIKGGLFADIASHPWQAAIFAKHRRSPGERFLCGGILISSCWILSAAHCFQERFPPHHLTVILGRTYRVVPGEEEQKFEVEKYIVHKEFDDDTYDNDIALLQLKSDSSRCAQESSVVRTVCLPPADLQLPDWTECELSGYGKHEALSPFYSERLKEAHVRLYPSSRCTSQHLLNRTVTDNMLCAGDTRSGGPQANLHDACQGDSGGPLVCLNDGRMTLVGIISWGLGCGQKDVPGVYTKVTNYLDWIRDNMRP

[7] = test system: Oryctolagus cuniculus; test: In vivo inhibition thrombosis formation in rabbit; format: functional
[8] = Inhibitory activity against Kallikrein
[9] = target: T1, Coagulation factor X; test: (§1) In vitro binding affinity towards factor Xa
[10] = In vivo half life period after intravenous administration in rat; format: ADME, organism-based
[11] = target: T1, Coagulation factor X; test: as §1; remark: listed apart in the source
[12] = test system: Oryctolagus cuniculus; test: In vivo plasma concentration required to inhibit thrombosis formation in rabbit; format: functional, organism-based
[13] = In vitro anticoagulant activity was measured by activated partial thromboplastin time (APTT) assay; format: functional
[14] = target: Serine protease 1 (Homo sapiens, UniProt P07477); test: Inhibitory activity against Trypsin
Chain of Serine protease 1 (P07477 whole entry): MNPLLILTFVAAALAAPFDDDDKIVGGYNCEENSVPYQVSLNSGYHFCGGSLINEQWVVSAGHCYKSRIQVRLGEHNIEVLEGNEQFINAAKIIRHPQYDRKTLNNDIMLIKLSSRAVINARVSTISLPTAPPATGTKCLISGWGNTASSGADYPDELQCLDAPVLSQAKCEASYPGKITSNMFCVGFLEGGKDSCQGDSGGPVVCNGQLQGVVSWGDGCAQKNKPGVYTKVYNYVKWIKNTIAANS

[15] = target: Vitamin K-dependent protein C (Homo sapiens, UniProt P04070); test: Inhibitory activity against activated protein C (aPC)
Chain of Vitamin K-dependent protein C (P04070 43-197 limits assumed): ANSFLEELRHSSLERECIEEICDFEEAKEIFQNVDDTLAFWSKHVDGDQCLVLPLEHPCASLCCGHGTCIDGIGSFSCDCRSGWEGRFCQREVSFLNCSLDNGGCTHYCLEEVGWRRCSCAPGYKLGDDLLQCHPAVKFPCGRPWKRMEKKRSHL
Chain of Vitamin K-dependent protein C (P04070 212-461 limits assumed): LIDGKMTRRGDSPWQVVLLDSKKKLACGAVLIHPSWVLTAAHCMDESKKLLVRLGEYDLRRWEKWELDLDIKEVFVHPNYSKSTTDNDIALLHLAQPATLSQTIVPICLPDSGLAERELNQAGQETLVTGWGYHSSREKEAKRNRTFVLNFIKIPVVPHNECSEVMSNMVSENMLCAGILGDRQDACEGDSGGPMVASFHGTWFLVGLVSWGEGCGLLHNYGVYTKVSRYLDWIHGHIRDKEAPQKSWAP

Compound	IC50 [1]	IC50 [2]	also measured
N=C(N)NCCC[C@@H](NC(=O)CN1CCCC[C@H](NS(=O)(=O)Cc2ccccc2)C1=O)C(=O)c1nccs1	38 nM	–	–
N=C(N)NCCC[C@@H](NC(=O)CN1CCC[C@H](NS(=O)(=O)Cc2ccccc2)C1=O)C(=O)c1nccs1	138 nM	29 nM	–
Cc1nsc(C)c1S(=O)(=O)N1CCN(CC(=O)NC(CCCNC(=N)N)C(=O)c2nccs2)C(=O)C1 (stereo not drawn)	669 nM	69 nM	–
CC(=O)Nc1nc(C)c(S(=O)(=O)N2CCN(CC(=O)NC(CCCN=C(N)N)C(=O)c3nccs3)C(=O)C2)s1 (stereo not drawn)	4000 nM	58 nM	–
N=C(N)NCCCC(NC(=O)CN1CCN(S(=O)(=O)c2ccc([N+](=O)[O-])cc2)CC1=O)C(=O)c1nccs1 (stereo not drawn)	3000 nM	6 nM	–
N=C(N)NCCCC(NC(=O)CN1CCN(S(=O)(=O)c2cc(Cl)c(Cl)cc2Cl)CC1=O)C(=O)c1nccs1 (stereo not drawn)	573 nM	1 nM	–
N=C(N)NCCCC(NC(=O)CN1CCN(S(=O)(=O)c2ccc(C(=O)O)cc2)CC1=O)C(=O)c1nccs1 (stereo not drawn)	17000 nM	510 nM	–
N=C(N)NCCC[C@@H](NC(=O)CN1CCN(C(=O)Cc2ccccc2)CC1=O)C(=O)c1nccs1	2000 nM	21 nM	–
N=C(N)NCCC[C@@H](NC(=O)CN1CCN(C(=O)Cc2ccc(Cl)cc2)CC1=O)C(=O)c1nccs1	11000 nM	17 nM	–
N#Cc1ccc(S(=O)(=O)N2CCN(CC(=O)NC(CCCNC(=N)N)C(=O)c3nccs3)C(=O)C2)cc1 (stereo not drawn)	3000 nM	32 nM	–
N=C(N)NCCCC(NC(=O)CN1CCN(S(=O)(=O)c2ccc(F)cc2)CC1=O)C(=O)c1nccs1 (stereo not drawn)	751 nM	2 nM	–
N=C(N)NCCCC(NC(=O)CN1CCN(S(=O)(=O)c2ccc(Cl)c(Cl)c2)CC1=O)C(=O)c1nccs1 (stereo not drawn)	1000 nM	1 nM	–
N=C(N)NCCC[C@@H](NC(=O)CN1CCN(S(=O)(=O)c2ccccc2)CC1=O)C(=O)c1nccs1	417 nM	8 nM	–
N=C(N)NCCC[C@@H](NC(=O)Cn1cccc(NS(=O)(=O)Cc2ccccc2)c1=O)C(=O)c1nccs1	8 nM	–	–
N=C(N)NCCCC(NC(=O)CN1CCN(S(=O)(=O)/C=C/c2ccccc2)CC1=O)C(=O)c1nccs1 (stereo not drawn)	7000 nM	13 nM	–
N=C(N)NCCCC(NC(=O)CN1CCN(S(=O)(=O)c2ccc(N)cc2)CC1=O)C(=O)c1nccs1 (stereo not drawn)	5000 nM	6 nM	–
N=C(N)NCCC[C@@H](NC(=O)CN1CCCC(CCC2CCNCC2)C1=O)C(=O)c1nccs1 (stereo partly drawn)	12000 nM	65 nM	–
N=C(N)NCCC[C@@H](NC(=O)CN1CCN(Cc2ccccc2)CC1=O)C(=O)c1nccs1	14000 nM	771 nM	–
N=C(N)NCCCC(NC(=O)CN1CCN(S(=O)(=O)c2cccc3cnccc23)CC1=O)C(=O)c1nccs1 (stereo not drawn)	267 nM	1 nM	–
N=C(N)NCCCC(NC(=O)CN1CCN(S(=O)(=O)c2ccc3ccccc3c2)CC1=O)C(=O)c1nccs1 (stereo not drawn)	6000 nM	8 nM	2x TG [3]: inactive; IC50 [4]: 6.96 µM; 2x PT [5]: 14.5 µM; IC50 [6]: 1850 nM; Inhibition [7]: 0%; IC50 [8]: 390 nM; k off [9]: 0.132 s⁻¹; k on [9]: 6.3e+06 M⁻¹ s⁻¹; half-life [10]: 15 min; Ki [11]: 2.7 nM; Plasma concentration [12]: 0.8 µM; 2x APTT [13]: 13.5 µM; IC50 [14]: 39.1 nM; IC50 [15]: > 180 µM
N=C(N)NCCCC(NC(=O)CN1CCN(S(=O)(=O)c2cccc(Cl)c2)CC1=O)C(=O)c1nccs1 (stereo not drawn)	134 nM	5 nM	–

Compound	IC50 [1]	IC50 [2]	also measured
N=C(N)NCCCC(NC(=O)CN1CCN(S(=O)(=O)c2ccc(C(F)(F)F)cc2)CC1=O)C(=O)c1nccs1 (stereo not drawn)	6000 nM	10 nM	–
N=C(N)NCCCC(NC(=O)CN1CCN(S(=O)(=O)c2ccc(NO)cc2)CC1=O)C(=O)c1nccs1 (stereo not drawn)	7000 nM	10 nM	–
N=C(N)NCCCC(NC(=O)CN1CCN(S(=O)(=O)c2ccc(Br)cc2)CC1=O)C(=O)c1nccs1 (stereo not drawn)	809 nM	0.7 nM	–
N=C(N)NCCC[C@@H](NC(=O)CN1CCN(C(=O)c2ccc(Cl)cc2)CC1=O)C(=O)c1nccs1	5000 nM	118 nM	–
N=C(N)NCCCC(NC(=O)CN1CCN(S(=O)(=O)c2cccc3nonc23)CC1=O)C(=O)c1nccs1 (stereo not drawn)	719 nM	2 nM	–
N=C(N)NCCCC(NC(=O)CN1CCN(S(=O)(=O)c2cccc3cccnc23)CC1=O)C(=O)c1nccs1 (stereo not drawn)	569 nM	2 nM	2x TG [3]: 2.5 µM; IC50 [4]: 0.01 µM; 2x PT [5]: 10.4 µM; IC50 [6]: 150 nM; Inhibition [7]: 0%; IC50 [8]: 240 nM; k off [9]: 0.107 s⁻¹; k on [9]: 2.9e+06 M⁻¹ s⁻¹; half-life [10]: 29 min; Ki [11]: 4.4 nM; Plasma concentration [12]: 0.4 µM; 2x APTT [13]: 2 µM; IC50 [14]: 2 nM; IC50 [15]: > 180 µM
N=C(N)NCCC[C@@H](NC(=O)CN1CCN(S(=O)(=O)c2ccc(Cl)cc2)CC1=O)C(=O)c1nccs1	1000 nM	–	2x TG [3]: 0.52 µM; IC50 [4]: 10.7 µM; 2x PT [5]: 11.2 µM; IC50 [6]: 1880 nM; Inhibition [7]: 90%; IC50 [8]: 406 nM; k off [9]: 0.19 s⁻¹; k on [9]: 3.4e+06 M⁻¹ s⁻¹; half-life [10]: 22 min; Plasma concentration [12]: 0.5 µM; 2x APTT [13]: 4.2 µM; IC50 [14]: 10.8 nM; IC50 [15]: > 180 µM
CC(=O)Nc1ccc(S(=O)(=O)N2CCN(CC(=O)NC(CCCNC(=N)N)C(=O)c3nccs3)C(=O)C2)cc1 (stereo not drawn)	5000 nM	116 nM	–
N=C(N)NCCC[C@@H](NC(=O)CN1CCN(C(=O)c2ccccc2)CC1=O)C(=O)c1nccs1	7000 nM	320 nM	–
N=C(N)NCCC[C@@H](NS(=O)(=O)Cc1ccccc1)C(=O)NCC(=O)N[C@H](CCCNC(=N)N)C(=O)c1nccs1	10000 nM	–	2x TG [3]: 0.18 µM; IC50 [4]: 0.309 µM; 2x PT [5]: 6.8 µM; IC50 [6]: 329 nM; Inhibition [7]: 100%; IC50 [8]: 27 nM; k on [9]: 6.5e+06 M⁻¹ s⁻¹; half-life [10]: 24 min; Plasma concentration [12]: 0.07 µM; 2x APTT [13]: 0.5 µM; IC50 [14]: 0.8 nM; IC50 [15]: 6 µM
N=C(N)NCCC[C@@H](NC(=O)CN1CCN(S(=O)(=O)Cc2ccccc2)CCC1=O)C(=O)c1nccs1	2000 nM	5 nM	–
N=C(N)NCCCC(NC(=O)CN1CCN(S(=O)(=O)c2cccc3ccccc23)CC1=O)C(=O)c1nccs1 (stereo not drawn)	118 nM	2 nM	–
N=C(N)NCCCC(NC(=O)CN1CCN(S(=O)(=O)c2cccc3c(Cl)cccc23)CC1=O)C(=O)c1nccs1 (stereo not drawn)	185 nM	0.62 nM	–
N=C(N)NCCC[C@@H](NC(=O)CNC(=O)[C@H](Cc1c[nH]c2ccccc12)NS(=O)(=O)Cc1ccccc1)C(=O)c1nccs1	870 nM	2 nM	–
COc1ccc(S(=O)(=O)N2CCN(CC(=O)NC(CCCNC(=N)N)C(=O)c3nccs3)C(=O)C2)cc1 (stereo not drawn)	792 nM	0.89 nM	–
N=C(N)NCCCC(NC(=O)CN1CCN(S(=O)(=O)CCc2cccc3ccccc23)CC1=O)C(=O)c1nccs1 (stereo not drawn)	375 nM	3 nM	–
N#Cc1c(Cl)cccc1Oc1ccc(S(=O)(=O)N2CCN(CC(=O)NC(CCCNC(=N)N)C(=O)c3nccs3)C(=O)C2)cc1 (stereo not drawn)	4000 nM	38 nM	–
N=C(N)NCCCC(NC(=O)CN1CCN(S(=O)(=O)c2ccc(-c3ccccn3)s2)CC1=O)C(=O)c1nccs1 (stereo not drawn)	4000 nM	4 nM	–
CS(=O)(=O)c1ccc(S(=O)(=O)N2CCN(CC(=O)NC(CCCN=C(N)N)C(=O)c3nccs3)C(=O)C2)cc1 (stereo not drawn)	4000 nM	85 nM	–
N=C(N)NCCC[C@@H](NC(=O)CN1CCNCC1=O)C(=O)c1nccs1	220000 nM	2000 nM	–
N=C(N)NCCC[C@@H](NC(=O)CN1CCN(S(=O)(=O)Cc2ccccc2)CC1)C(=O)c1nccs1	> 500000 nM	24000 nM	–
